Data on 36 compounds can be found in patent publication US20250353816A1, “QUINOLINES AS MODULATORS OF POLRMT” (Pretzel Therapeutics, Inc., priority 2024, published 2025).

pIC50: −log10 of the molar value.

In this assay the target is POLRMT (Homo sapiens (Human), UniProt O00411). The assay can be described thus: homogeneous TR-FRET assay of mitochondrial transcription (inhibition of POLRMT). In kind it is biochemical. The conditions noted are these: 7.5 nM POLRMT, 15 nM TFB2M, 30 nM TFAM, 60 minutes at 37° C. How it is done: The inhibitory activity of the compounds of the present invention against POLRMT were determined by assays based on Bergbrede, T., et al., “An adaptable high-throughput technology enabling the identification of specific transcription modulators,” SLAC Discov., 22, 378-386 (2017).
Chain of POLRMT (O00411 42-1230): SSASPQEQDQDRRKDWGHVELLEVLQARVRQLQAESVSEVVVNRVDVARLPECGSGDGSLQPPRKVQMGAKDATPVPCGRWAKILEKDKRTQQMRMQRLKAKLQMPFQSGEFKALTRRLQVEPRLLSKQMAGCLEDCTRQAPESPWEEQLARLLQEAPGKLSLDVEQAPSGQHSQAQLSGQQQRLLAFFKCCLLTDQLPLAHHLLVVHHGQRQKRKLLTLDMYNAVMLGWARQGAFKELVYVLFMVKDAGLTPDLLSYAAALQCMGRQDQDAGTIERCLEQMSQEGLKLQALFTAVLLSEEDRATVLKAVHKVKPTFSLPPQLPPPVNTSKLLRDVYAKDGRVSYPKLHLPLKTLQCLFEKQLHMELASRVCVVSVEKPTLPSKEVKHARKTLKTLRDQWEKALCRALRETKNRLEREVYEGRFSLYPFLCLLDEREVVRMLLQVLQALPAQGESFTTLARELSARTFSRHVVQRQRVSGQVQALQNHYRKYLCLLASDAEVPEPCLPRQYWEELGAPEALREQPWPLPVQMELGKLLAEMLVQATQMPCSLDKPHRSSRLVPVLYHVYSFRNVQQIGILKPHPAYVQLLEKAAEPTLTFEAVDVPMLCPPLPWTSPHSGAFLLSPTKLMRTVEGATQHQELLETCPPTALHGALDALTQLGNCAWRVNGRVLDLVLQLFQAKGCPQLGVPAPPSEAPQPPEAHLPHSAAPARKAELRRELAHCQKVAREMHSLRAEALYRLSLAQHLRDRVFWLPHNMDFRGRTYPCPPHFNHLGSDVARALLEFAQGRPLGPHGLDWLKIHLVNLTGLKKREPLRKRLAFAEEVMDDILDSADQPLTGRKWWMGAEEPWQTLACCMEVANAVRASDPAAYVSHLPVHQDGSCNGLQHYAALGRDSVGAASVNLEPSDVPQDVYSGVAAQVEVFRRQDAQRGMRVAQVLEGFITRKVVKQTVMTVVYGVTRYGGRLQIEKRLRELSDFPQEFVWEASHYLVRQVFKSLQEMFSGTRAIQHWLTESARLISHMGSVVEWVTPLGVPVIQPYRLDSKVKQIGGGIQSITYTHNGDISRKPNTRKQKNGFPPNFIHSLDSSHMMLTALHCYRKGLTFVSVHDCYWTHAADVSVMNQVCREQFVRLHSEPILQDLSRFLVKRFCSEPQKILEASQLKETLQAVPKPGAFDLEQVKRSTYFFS
The ability of some compounds of the present invention to inhibit POLRMT were determined in a homogeneous TR-FRET Assay using high-throughput screening in a 384-well plate format. This method is used to monitor the activity of mitochondrial transcription through measurement of its product, a 407 bp long RNA transcript. Detection of the product is facilitated by hybridization of two DNA-oligonucleotide probes to specific and adjacent sequences within the RNA product sequence. Upon annealing of the probes, two fluorophores are coupled directly to an acceptor nucleotide probe (ATTO647, 5′), or introduced via a coupled streptavidin with a biotinylated donor nucleotide probe (Europium cryptate) that is brought into sufficient proximity to serve as a fluorescence-donor-acceptor pair. Thus, a FRET signal at 665 nm is generated upon excitation at 340 nm.
Proteins used as transcription factors (POLRMT: NP_005026.3, TFAM: NP_003192.1, TFB2M: NP_071761.1) are diluted from their stocks to working concentrations of 1 μM, 20 μM and 4 μM respectively, in a dilution buffer containing 20 mM Tris-HCl (pH 8.0), 200 mM NaCl, 10% (v/v) glycerol, 1 mM Dithiothreitol (DTT), 0.5 mM EDTA.
DNA template is a pUC18 plasmid with the mitochondrial light strand promotor sequence (1-477) cloned between HindIII and BamHI sites. The DNA template is restriction linearized proximal to the promotor 3′-end (pUC-LSP).
The reaction mixture (10 uL) containing 7.5 nM POLRMT, 15 nM of TFB2M, 30 nM of TFAM, 0.5 nM of DNA template and 500 μM nucleotide triphosphate mix (NTPs) in a reaction buffer (containing 10 mM Tris-HCl (pH 7.5), 10 mM MgCl2, 40 mM NaCl, 10 mM DTT, 0.005% (w/v) Tween-20, 160 units/ml Rnase inhibitor and 0.1 mg/mL BSA) are dispensed to compounds in microplates, using a Thermo Multidrop® dispenser, and incubated at 37° C. in a VWR INCU-Line incubator for 60 minutes after mixing. No nucleotide triphosphate mix is added to negative control samples. Microplates with compounds to be tested in the assay are prepared from 10 mM compound stocks in 100% DMSO, equal amounts of DMSO without any compound are added to positive control and negative control samples.
During the incubation, a mix of the detection reagents is prepared in a buffer such that the enzymatic reaction is terminated due to chelating of Mg-ions and increased ionic strength, containing 50 mM Tris-HCl (pH 7.5), 700 mM NaCl, 20 mM EDTA, and 0.01% (w/v) Tween-20. Europium-streptavidin is pre-incubated with a 200-fold molar excess of a random sequence oligonucleotide to block unspecific binding of oligo, for two hours at ambient temperature in the dark. Afterwards, the blocked Europium-streptavidin is kept on ice until use.
At the end of the enzymatic reaction time, 5 μL detection oligo mix in the detection buffer is added, and assay plates are mixed and kept at ambient temperature for one hour, protected from light. The concentration of the Acceptor nucleotide oligo (e.g., ATTO647N-5′-[…]-3′ (SEQ ID NO: 1)) and Donor nucleotide oligo (e.g., bio-5′-AACACATCTCT(-bio)GCCAAACCCCA-bio-3′ (SEQ ID NO: 2)) in each assay well is 1 nM, and 3 nM, respectively.
After incubation with oligo mix, 5 μL of pre-blocked Europium-streptavidin reagent is dispensed to each assay well, assay plates are again mixed and kept at ambient temperature for one hour, protected from light.
The generated signal is measured with BMG Pherastar microtiter plate reader with a TRF light unit, using excitation at 340 nm, an integration time of 200 μs, and a delay time of […], before detection at 620 nm and 665 nm. The ratio of donor- and acceptor-fluorescence is used as a measure of the generated transcript product (i.e. enzymatic activity).
For orientation: TR-FRET usually uses a lanthanide donor and a delayed reading to cut background.

As usually defined, the pIC50 is −log10 of the IC50, conventionally taken in molar units. The low end stands for a high IC50, the high end for a low IC50. In turn, `Cc1ccccc1-c1ccnc2cc(CC(C)C(=O)N3CCCCC3)ccc12` (single isomer, unassigned) [Example 34, 2-methyl-1-(piperidin-1-yl)-3-(4-(o-tolyl)quinolin-7-yl)propan-1-one] showed a negative logarithm of the IC50 (pIC50) of 5.70.

`Cc1ccccc1-c1ccnc2cc(CC(C)C(=O)N3CCCCC3)ccc12` (single isomer, unassigned) [Example 35, 2-methyl-1-(piperidin-1-yl)-3-(4-(o-tolyl)quinolin-7-yl)propan-1-one] had a negative logarithm of the IC50 (pIC50) of 4.15.

In turn, `Cc1ccccc1-c1ccnc2cc(C(C)CC(=O)N(C)C)ccc12` (single isomer, unassigned) [Example 37, N,N-dimethyl-3-(4-(o-tolyl)quinolin-7-yl)butanamide] showed a negative-log IC50 (pIC50) of 4.10.

`Cc1ccccc1-c1ccnc2cc(C(C)CC(=O)N(C)C)ccc12` (single isomer, unassigned) [Example 38, N,N-dimethyl-3-(4-(o-tolyl)quinolin-7-yl)butanamide] showed a negative-log IC50 (pIC50) of 4.43.

In the case of `Cc1ccccc1-c1ccnc2cc(NC(C)C(=O)N(C)C)ccc12` (single isomer, unassigned) [Example 48, N,N-dimethyl-2-((4-(o-tolyl)quinolin-7-yl)amino)propanamide], the negative-log IC50 (pIC50) was less than 4.00.

In turn, `Cc1ccccc1-c1ccnc2cc(NC(C)C(=O)N(C)C)ccc12` (single isomer, unassigned) [Example 49, N,N-dimethyl-2-((4-(o-tolyl)quinolin-7-yl)amino)propanamide] gave a pIC50 of 5.00.

In turn, `Cc1ccccc1-c1ccnc2cc(NC(C)C(=O)N3CCOCC3)ccc12` (single isomer, unassigned) [Example 50, 1-morpholino-2-((4-(o-tolyl)quinolin-7-yl)amino)propan-1-one] gave a negative logarithm of the IC50 (pIC50) of 5.70.

For the compound `Cc1ccccc1-c1ccnc2cc(NC(C)C(=O)N3CCOCC3)ccc12` (single isomer, unassigned) [Example 51, 1-morpholino-2-((4-(o-tolyl)quinolin-7-yl)amino)propan-1-one], the pIC50 was less than 4.00.

The compound `Cc1ccccc1-c1ccnc2cc(NC(C)C(=O)N3CCCCC3)ccc12` (single isomer, unassigned) [Example 52, 1-(piperidin-1-yl)-2-((4-(o-tolyl)quinolin-7-yl)amino)propan-1-one] gave a pIC50 of less than 4.00.

In turn, `Cc1ccccc1-c1ccnc2cc(NC(C)C(=O)N3CCCCC3)ccc12` (single isomer, unassigned) [Example 53, 1-(piperidin-1-yl)-2-((4-(o-tolyl)quinolin-7-yl)amino)propan-1-one] had a negative-log IC50 (pIC50) of 5.52.

For the compound `COC(=O)c1ccc2c(-c3ccccc3C)ccnc2c1` [Example 1, methyl 4-(o-tolyl)quinoline-7-carboxylate], the negative logarithm of the IC50 (pIC50) is 5.52.

As for `Cc1ccccc1-c1ccnc2cc(C(N)=O)ccc12` [Example 2, 4-(o-tolyl)quinoline-7-carboxamide], the negative logarithm of the IC50 (pIC50) was less than 4.00.

`CNC(=O)c1ccc2c(-c3ccccc3C)ccnc2c1` [Example 3, N-methyl-4-(o-tolyl)quinoline-7-carboxamide] showed a pIC50 of 4.59.

Compound `Cc1ccccc1-c1ccnc2cc(C(=O)N(C)C)ccc12` [Example 4, N,N-dimethyl-4-(o-tolyl)quinoline-7-carboxamide] gave a negative-log IC50 (pIC50) of less than 4.00.

Turning to `Cc1ccccc1-c1ccnc2cc(C(=O)N(C)Cc3ccccc3)ccc12` [Example 5, N-benzyl-N-methyl-4-(o-tolyl)quinoline-7-carboxamide], the negative logarithm of the IC50 (pIC50) was less than 4.00.

In the case of `Cc1ccccc1-c1ccnc2cc(C(=O)NCc3ccccc3)ccc12` [Example 6, N-benzyl-4-(o-tolyl)quinoline-7-carboxamide], the pIC50 is 4.05.

On to `Cc1ccccc1-c1ccnc2cc(C(=O)N3CCOCC3)ccc12` [Example 7, morpholino-[4-(o-tolyl)-7-quinolyl]methanone], for which the negative logarithm of the IC50 (pIC50) was less than 4.00.

For the compound `Cc1ccccc1-c1ccnc2cc(C(=O)N3CCN(C)CC3)ccc12` [Example 8, (4-methylpiperazin-1-yl)-[4-(o-tolyl)-7-quinolyl]methanone], the negative-log IC50 (pIC50) was less than 4.00.

The compound `CC(=O)N1CCN(C(=O)c2ccc3c(-c4ccccc4C)ccnc3c2)CC1` [Example 9, 1-(4-(4-(o-tolyl)quinoline-7-carbonyl)piperazin-1-yl)ethan-1-one] showed a pIC50 of less than 4.00.

Compound `Cc1ccccc1-c1ccnc2cc(CO)ccc12` [Example 10, (4-(o-tolyl)quinolin-7-yl)methanol] gave a pIC50 of 4.30.

The compound `CC(=O)Nc1ccc2c(-c3ccccc3C)ccnc2c1` [Example 11, N-(4-(o-tolyl)quinolin-7-yl)acetamide] showed a negative-log IC50 (pIC50) of 5.00.

For the compound `Cc1ccccc1-c1ccnc2cc(CNC(=O)OC(C)(C)C)ccc12` [Example 12, tert-butyl ((4-(o-tolyl)quinolin-7-yl)methyl)carbamate], the negative logarithm of the IC50 (pIC50) is 4.82.

As to `Cc1ccccc1-c1ccnc2cc(CNC(=O)C3CCCC3)ccc12` [Example 13, N-((4-(o-tolyl)quinolin-7-yl)methyl)cyclopentanecarboxamide], the negative logarithm of the IC50 (pIC50) is 4.54.

`Cc1ccccc1-c1ccnc2cc(CNS(=O)(=O)c3ccccc3)ccc12` [Example 14, N-((4-(o-tolyl)quinolin-7-yl)methyl)benzenesulfonamide] gave a negative logarithm of the IC50 (pIC50) of 4.17.

In turn, `COC(=O)NCc1ccc2c(-c3ccccc3C)ccnc2c1` [Example 15, methyl ((4-(o-tolyl)quinolin-7-yl)methyl)carbamate] had a pIC50 of 4.23.

`Cc1ccccc1-c1ccnc2cc(N(C)C)ccc12` [Example 16, N,N-dimethyl-4-(o-tolyl)quinolin-7-amine] had a negative-log IC50 (pIC50) of 5.15.

With `Cc1ccccc1-c1ccnc2cc(CCO)ccc12` [Example 17, 2-(4-(o-tolyl)quinolin-7-yl)ethan-1-ol], the pIC50 is 5.00.

The compound `Cc1ccccc1-c1ccnc2cc(C(C)O)ccc12` (stereo not drawn) [Example 18, 1-(4-(o-tolyl)quinolin-7-yl)ethan-1-ol] had a pIC50 of 4.44.

As to `COCc1ccc2c(-c3ccccc3C)ccnc2c1` [Example 19, 7-(methoxymethyl)-4-(o-tolyl)quinoline], the pIC50 is 5.30.

For `Cc1ccccc1-c1ccnc2cc(CN3CCOCC3)ccc12` [Example 20, 4-((4-(o-tolyl)quinolin-7-yl)methyl)morpholine], the pIC50 is less than 4.00.

For `CC(=O)N1CCN(Cc2ccc3c(-c4ccccc4C)ccnc3c2)CC1` [Example 21, 1-(4-((4-(o-tolyl)quinolin-7-yl)methyl)piperazin-1-yl)ethan-1-one], the negative-log IC50 (pIC50) is less than 4.00.

On to `Cc1ccccc1-c1ccnc2cc(CNS(C)(=O)=O)ccc12` [Example 22, N-((4-(o-tolyl)quinolin-7-yl)methyl)methanesulfonamide], for which the negative logarithm of the IC50 (pIC50) was 4.14.

In turn, `Cc1ccccc1-c1ccnc2cc(CN(C)S(=O)(=O)c3ccccc3)ccc12` [Example 23, N-methyl-N-((4-(o-tolyl)quinolin-7-yl)methyl)benzenesulfonamide] showed a negative logarithm of the IC50 (pIC50) of less than 4.00.

The compound `Cc1ccccc1-c1ccnc2cc(CN(C)C(=O)C3CCCC3)ccc12` [Example 24, N-methyl-N-((4-(o-tolyl)quinolin-7-yl)methyl)cyclopentanecarboxamide] showed a negative-log IC50 (pIC50) of 5.00.

For the compound `Cc1ccccc1-c1ccnc2cc(CN3CCCC3=O)ccc12` [Example 25], the negative-log IC50 (pIC50) was less than 4.00.

Regarding `Cc1ccccc1-c1ccnc2cc(CN3CCCC3)ccc12` [Example 26, 7-(pyrrolidin-1-ylmethyl)-4-(o-tolyl)quinoline], the pIC50 is less than 4.00.
